Values after ≈ are worked out from the molar mass of the structure shown.
Legend:
HCT-116 [1] = assay: Antiproliferative activity against wild type human HCT-116 cells measured after 5 days by CTG assay; type: functional, cell-based; details: HCT-116, 120 h
[2] = target: T1, S-adenosylmethionine synthase isoform type-2 (Homo sapiens, UniProt P31153); assay: Inhibition of MAT2A (unknown origin) assessed as release of inorganic phosphate using ATP/L-methionine pre-incubated for 30 mins followed by substrate addition measured after 2.5 hrs by colorimetric assay
HCT-116 [3] = assay: Antiproliferative activity against MTAP-knock out human HCT-116 cells assessed as proliferation inhibition rate measured after 5 days by CTG assay; type: functional, cell-based; details: HCT-116, 120 h
HCT-116 [4] = assay: Antiproliferative activity against MTAP-knock out human HCT-116 cells assessed as maximal inhibition rate at 10 uM measured after 5 days by CTG assay relative to control; type: functional; details: time 5 day
[5] = Clearance in male ICR mouse at 10 mg/kg, po and 2 mg/kg, iv measured upto 24 hrs; type: ADME, organism-based; details: in vivo
[6] = Half life in male ICR mouse at 10 mg/kg, po and 2 mg/kg, iv measured upto 24 hrs; type: ADME, organism-based; details: in vivo
[7] = AUC (0 to infinity) in male ICR mouse at 10 mg/kg, po and 2 mg/kg, iv measured upto 24 hrs; type: ADME, organism-based; details: in vivo
[8] = Lipophilicity, log D of compound at pH 7.4 byHPLC method; type: physicochemical; details: buffer
[9] = target: T1, S-adenosylmethionine synthase isoform type-2; assay: Inhibition of MAT2A in MTAP-knock out human HCT-116 cells assessed as inhibition of S-adenosylmethionine level; type: cell-based
[10] = target: T1, S-adenosylmethionine synthase isoform type-2; assay: Inhibition of MAT2A in wild type human HCT-116 cells assessed as inhibition of S-adenosylmethionine; type: cell-based
[11] = Selectivity index, ratio of IC50 for antiproliferative activity against wild type human HCT-116 cells to IC50 for antiproliferative activity against MTAP-knock out human HCT-116 cells
[12] = AUCinf in male ICR mouse at 2 mg/kg, iv measured upto 24 hrs by LC-MS/MS analysis; type: ADME, organism-based; details: in vivo
[13] = AUCinf in male ICR mouse at 10 mg/kg, po measured upto 24 hrs by LC-MS/MS analysis; type: ADME, organism-based; details: in vivo
[14] = AUCinf in male Sprague-Dawley rat at 10 mg/kg, po measured upto 24 hrs upto 24 hrs by LC-MS/MS analysis; type: ADME, organism-based; details: in vivo
[15] = AUCinf in beagle dog at 10 mg/kg, po measured upto 24 hrs upto 24 hrs by LC-MS/MS analysis; type: ADME, organism-based, Canis lupus familiaris; details: in vivo
[16] = Half life in male ICR mouse at 2 mg/kg, iv measured upto 24 hrs by LC-MS/MS analysis; type: ADME, organism-based; details: in vivo
[17] = Half life in male ICR mouse at 10 mg/kg, po measured upto 24 hrs by LC-MS/MS analysis; type: ADME, organism-based; details: in vivo
[18] = Half life in beagle dog at 10 mg/kg, po measured upto 24 hrs upto 24 hrs by LC-MS/MS analysis; type: ADME, organism-based, Canis lupus familiaris; details: in vivo
[19] = Volume of distribution at steady state in beagle dog at 2 mg/kg, iv measured upto 24 hrs upto 24 hrs by LC-MS/MS analysis; type: ADME, organism-based, Canis lupus familiaris; details: in vivo, read-out: Vdss
[20] = Cmax in male Sprague-Dawley rat at 10 mg/kg, po measured upto 24 hrs upto 24 hrs by LC-MS/MS analysis; type: ADME, organism-based; details: in vivo
[21] = Cmax in beagle dog at 10 mg/kg, po measured upto 24 hrs upto 24 hrs by LC-MS/MS analysis; type: ADME, organism-based, Canis lupus familiaris; details: in vivo
[22] = Oral bioavailability in male Sprague-Dawley rat at 10 mg/kg measured upto 24 hrs upto 24 hrs by LC-MS/MS analysis; type: ADME, organism-based; details: in vivo
[23] = Oral bioavailability in male ICR mouse at 10 mg/kg measured upto 24 hrs by LC-MS/MS analysis; type: ADME, organism-based; details: in vivo
[24] = Plasma protein binding in dog assessed as unbound fraction; type: ADME, cell-free, Canis lupus familiaris
[25] = Plasma protein binding in rat assessed as unbound fraction; type: ADME, cell-free
[26] = Plasma protein binding in mouse assessed as unbound fraction; type: ADME, cell-free
[27] = Microsomal metabolic stability in human liver microsomes assessed as half life; type: ADME, Microsome
[28] = Microsomal metabolic stability in dog liver microsomes assessed as half life; type: ADME, Canis lupus familiaris, Microsome
[29] = Microsomal metabolic stability in rat liver microsomes assessed as half life; type: ADME, Microsome
[30] = Microsomal metabolic stability in mouse liver microsomes assessed as half life; type: ADME, Microsome
[31] = Hepatic metabolic stability in dog hepatocyte assessed as half life; type: ADME, cell-based, Canis lupus familiaris; details: hepatocytes
[32] = Hepatic metabolic stability in rat hepatocyte assessed as half life; type: ADME, cell-based; details: hepatocytes
[33] = Hepatic metabolic stability in mouse hepatocyte assessed as half life; type: ADME, cell-based; details: hepatocytes
[34] = Solubility of the compound in FaSSIF; type: physicochemical
[35] = Solubility of the compound in FaSSGF; type: physicochemical
[36] = Solubility of the compound in pH 7.4 phosphate buffer; type: physicochemical
[37] = Lipophilicity, log P of the compound; type: physicochemical; details: octanol/water
[38] = Apparent permeability across apical to basolateral in human Caco-2 cells; type: ADME, cell-based; details: read-out: permeability
Cytochrome P450 2B6 = target: T2, Cytochrome P450 2B6 (Homo sapiens, UniProt P20813); assay: Inhibition of CYP2B6 (unknown origin); type: ADME
T2 sequence (P20813 whole entry): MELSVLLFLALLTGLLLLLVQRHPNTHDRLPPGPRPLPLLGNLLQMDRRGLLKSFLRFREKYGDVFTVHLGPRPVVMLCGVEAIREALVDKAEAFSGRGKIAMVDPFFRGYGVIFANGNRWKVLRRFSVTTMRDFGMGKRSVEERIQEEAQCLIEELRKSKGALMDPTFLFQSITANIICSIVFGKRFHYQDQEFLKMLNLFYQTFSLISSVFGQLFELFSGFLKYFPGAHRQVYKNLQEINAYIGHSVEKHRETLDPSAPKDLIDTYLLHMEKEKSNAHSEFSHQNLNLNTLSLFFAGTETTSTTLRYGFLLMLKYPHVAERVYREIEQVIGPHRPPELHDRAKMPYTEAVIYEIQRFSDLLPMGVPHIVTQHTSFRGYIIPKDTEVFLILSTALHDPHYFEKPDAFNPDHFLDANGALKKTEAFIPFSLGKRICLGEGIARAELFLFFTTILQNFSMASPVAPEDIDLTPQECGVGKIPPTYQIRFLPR

Cytochrome P450 2C9 = Cytochrome P450 2C9 (Homo sapiens, UniProt P11712); assay: Inhibition of CYP2C9 (unknown origin); type: ADME
Cytochrome P450 2C19 = Cytochrome P450 2C19 (Homo sapiens, UniProt P33261); assay: Inhibition of CYP2C19 (unknown origin); type: ADME
Cytochrome P450 3A4 = Cytochrome P450 3A4 (Homo sapiens, UniProt P08684); assay: Inhibition of CYP3A4 (unknown origin); type: ADME
[39] = target: Voltage-gated inwardly rectifying potassium channel KCNH2 (Homo sapiens, UniProt Q12809); assay: Inhibition of hERG; type: toxicity
[40] = Genotoxicity in Salmonella typhimurium TA98; type: toxicity; details: salmonella enterica subsp. enterica serovar typhimurium
[41] = Genotoxicity in Salmonella typhimurium TA97a; type: toxicity; details: salmonella enterica subsp. enterica serovar typhimurium
[42] = Genotoxicity in Salmonella typhimurium TA100; type: toxicity; details: salmonella enterica subsp. enterica serovar typhimurium
[43] = Genotoxicity in Salmonella typhimurium TA102; type: toxicity; details: salmonella enterica subsp. enterica serovar typhimurium
[44] = Genotoxicity in Salmonella typhimurium TA1535; type: toxicity; details: salmonella enterica subsp. enterica serovar typhimurium

T1 sequence (P31153 whole entry, canonical isoform): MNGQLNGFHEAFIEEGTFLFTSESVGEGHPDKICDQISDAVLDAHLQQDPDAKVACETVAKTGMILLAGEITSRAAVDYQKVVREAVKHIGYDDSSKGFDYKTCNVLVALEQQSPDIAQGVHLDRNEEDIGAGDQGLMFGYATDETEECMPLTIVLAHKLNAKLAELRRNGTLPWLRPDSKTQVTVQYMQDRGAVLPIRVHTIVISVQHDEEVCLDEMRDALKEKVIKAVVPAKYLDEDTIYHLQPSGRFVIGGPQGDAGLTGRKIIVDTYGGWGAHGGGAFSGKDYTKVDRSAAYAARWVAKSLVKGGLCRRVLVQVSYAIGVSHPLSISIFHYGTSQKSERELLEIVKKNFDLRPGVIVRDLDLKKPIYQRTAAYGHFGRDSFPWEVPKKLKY
Chain of Voltage-gated inwardly rectifying potassium channel KCNH2 (Q12809 whole entry): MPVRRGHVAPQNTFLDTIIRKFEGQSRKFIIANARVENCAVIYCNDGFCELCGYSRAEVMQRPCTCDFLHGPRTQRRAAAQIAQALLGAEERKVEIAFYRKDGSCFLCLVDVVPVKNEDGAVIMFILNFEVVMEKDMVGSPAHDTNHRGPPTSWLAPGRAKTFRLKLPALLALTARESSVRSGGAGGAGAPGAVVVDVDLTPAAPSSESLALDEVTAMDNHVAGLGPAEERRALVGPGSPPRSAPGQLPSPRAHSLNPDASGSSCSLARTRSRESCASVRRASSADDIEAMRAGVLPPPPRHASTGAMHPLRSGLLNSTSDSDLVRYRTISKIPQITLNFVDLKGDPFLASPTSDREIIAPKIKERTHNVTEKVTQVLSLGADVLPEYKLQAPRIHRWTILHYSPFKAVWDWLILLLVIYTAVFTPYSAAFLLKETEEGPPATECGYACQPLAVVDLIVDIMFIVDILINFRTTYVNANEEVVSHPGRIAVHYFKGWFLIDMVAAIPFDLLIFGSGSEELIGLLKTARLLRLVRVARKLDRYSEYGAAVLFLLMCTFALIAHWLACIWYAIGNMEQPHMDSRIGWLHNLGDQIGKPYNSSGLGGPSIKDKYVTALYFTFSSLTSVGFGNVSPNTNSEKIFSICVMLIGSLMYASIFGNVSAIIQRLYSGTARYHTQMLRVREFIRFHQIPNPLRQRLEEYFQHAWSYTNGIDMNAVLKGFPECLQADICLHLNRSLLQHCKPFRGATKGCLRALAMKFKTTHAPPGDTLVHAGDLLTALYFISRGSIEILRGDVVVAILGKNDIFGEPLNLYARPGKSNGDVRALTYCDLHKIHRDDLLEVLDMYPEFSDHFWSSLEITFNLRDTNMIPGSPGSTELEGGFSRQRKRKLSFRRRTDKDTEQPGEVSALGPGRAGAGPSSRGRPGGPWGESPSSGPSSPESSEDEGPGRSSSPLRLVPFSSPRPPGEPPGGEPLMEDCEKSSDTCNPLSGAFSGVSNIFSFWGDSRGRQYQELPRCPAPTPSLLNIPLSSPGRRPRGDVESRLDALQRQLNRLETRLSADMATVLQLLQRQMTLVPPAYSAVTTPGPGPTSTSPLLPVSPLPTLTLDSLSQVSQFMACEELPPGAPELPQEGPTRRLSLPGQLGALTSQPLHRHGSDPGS
Chain of Cytochrome P450 2C19 (P33261 whole entry): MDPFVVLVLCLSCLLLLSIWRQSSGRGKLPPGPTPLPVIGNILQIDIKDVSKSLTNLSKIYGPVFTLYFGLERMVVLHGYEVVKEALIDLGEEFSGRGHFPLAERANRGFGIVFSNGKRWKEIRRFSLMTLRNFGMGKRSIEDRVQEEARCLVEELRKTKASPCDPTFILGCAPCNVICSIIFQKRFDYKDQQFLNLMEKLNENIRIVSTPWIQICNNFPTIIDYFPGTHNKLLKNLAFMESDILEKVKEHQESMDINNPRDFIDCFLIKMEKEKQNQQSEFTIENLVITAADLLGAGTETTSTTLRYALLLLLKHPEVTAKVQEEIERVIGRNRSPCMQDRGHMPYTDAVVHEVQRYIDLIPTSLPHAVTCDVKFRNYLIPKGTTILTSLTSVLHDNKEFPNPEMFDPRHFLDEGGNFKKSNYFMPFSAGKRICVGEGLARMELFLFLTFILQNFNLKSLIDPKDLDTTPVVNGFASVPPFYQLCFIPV
Chain of Cytochrome P450 2C9 (P11712 whole entry): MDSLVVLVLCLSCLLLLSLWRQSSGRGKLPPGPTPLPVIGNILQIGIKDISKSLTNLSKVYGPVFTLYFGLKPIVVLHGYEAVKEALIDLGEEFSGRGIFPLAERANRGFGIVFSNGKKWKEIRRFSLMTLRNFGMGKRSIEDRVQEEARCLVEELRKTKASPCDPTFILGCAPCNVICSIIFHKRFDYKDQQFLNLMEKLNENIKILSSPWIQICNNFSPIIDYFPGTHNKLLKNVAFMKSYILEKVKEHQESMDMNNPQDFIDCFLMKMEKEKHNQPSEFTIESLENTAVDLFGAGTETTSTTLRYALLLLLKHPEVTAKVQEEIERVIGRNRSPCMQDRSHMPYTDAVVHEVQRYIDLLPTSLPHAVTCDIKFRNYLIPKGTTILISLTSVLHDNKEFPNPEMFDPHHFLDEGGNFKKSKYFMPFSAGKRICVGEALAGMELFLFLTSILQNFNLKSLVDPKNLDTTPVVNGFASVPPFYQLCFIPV
Chain of Cytochrome P450 3A4 (P08684 whole entry): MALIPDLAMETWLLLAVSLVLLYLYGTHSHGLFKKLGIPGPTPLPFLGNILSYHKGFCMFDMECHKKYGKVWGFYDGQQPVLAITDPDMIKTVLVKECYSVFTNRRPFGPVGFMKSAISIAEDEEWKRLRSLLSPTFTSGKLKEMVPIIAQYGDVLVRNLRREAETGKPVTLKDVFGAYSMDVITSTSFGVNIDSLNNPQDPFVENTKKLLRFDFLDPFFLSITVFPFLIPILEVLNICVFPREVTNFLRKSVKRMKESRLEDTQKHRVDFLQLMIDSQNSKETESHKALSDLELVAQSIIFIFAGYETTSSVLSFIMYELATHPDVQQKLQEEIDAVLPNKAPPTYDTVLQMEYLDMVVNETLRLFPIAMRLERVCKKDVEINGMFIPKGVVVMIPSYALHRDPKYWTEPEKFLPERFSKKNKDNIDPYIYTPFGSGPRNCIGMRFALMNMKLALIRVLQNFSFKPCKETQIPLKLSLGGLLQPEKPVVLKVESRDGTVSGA

## [2H]C([2H])([2H])NC1=NC(=O)[C@]2(CCc3ncccc32)c2cc(C(C)(F)F)ccc21
HCT-116 [1]
  IC50: > 10000 nM
[2]
  IC50: 4 nM
HCT-116 [3]
  IC50: 47 nM
HCT-116 [4]
  Imax: 100%
[5]
  clearance: 9.12 mL/min/kg
[6]
  half-life: 2.24 h
[7]
  AUC(0-inf): 24900 ng·h/mL
[8]
  logD: 1.59
[9]
  IC50: 4 nM
[10]
  IC50: 2 nM
[11]
  Selectivity Index: >181
[12]
  AUC(0-inf): 3660 ng·h/mL
[13]
  AUC(0-inf): 24900 ng·h/mL
[14]
  AUC(0-inf): 14500 ng·h/mL
[15]
  AUC(0-inf): 12300 ng·h/mL
[16]
  half-life: 1.94 h
[17]
  half-life: 2.37 h
[18]
  half-life: 4.47 h
[19]
  Vd: 1.14 L/kg
[20]
  Cmax: 6100 ng/mL
[21]
  Cmax: 2140 ng/mL
[22]; male, Sprague-Dawley
  bioavailability: 135%
[23]
  bioavailability: 132%
[24]
  fraction unbound: 0.456
[25]
  fraction unbound: 0.373
[26]
  fraction unbound: 0.345
[27]
  half-life: > 3.1 h
[28]
  half-life: > 3.1 h
[29]
  half-life: > 3.1 h
[30]
  half-life: > 2.46 h
[31]
  half-life: > 3.61 h
[32]
  half-life: > 3.61 h
[33]
  half-life: > 3.61 h
[34]
  solubility: 208 µM (≈ 71.6 µg/mL)
[35]
  solubility: 79.9 µM (≈ 27.5 µg/mL)
[36]
  solubility: 174 µM (≈ 59.9 µg/mL)
[37]
  logP: 1.65
[38]
  Papp A→B: 5.12 ×10⁻⁶ cm/s
Cytochrome P450 2B6
  IC50: > 10000 nM
Cytochrome P450 2C9
  IC50: > 10000 nM
Cytochrome P450 2C19
  IC50: > 10000 nM
Cytochrome P450 3A4
  IC50: > 10000 nM
[39]
  IC50: > 40000 nM
[40]
  Activity: Non-toxic
[41]
  Activity: Non-toxic
[42]
  Activity: Non-toxic
[43]
  Activity: Non-toxic
[44]
  Activity: Non-toxic

## [2H]C([2H])([2H])NC1=NC(=O)[C@]2(CCc3ncccc32)c2cc(C(F)(F)F)ccc21
HCT-116 [1]
  IC50: 680 nM
[2]
  IC50: 4 nM
HCT-116 [3]
  IC50: 58 nM
HCT-116 [4]
  Imax: 89.34%
[5]
  clearance: 7.98 mL/min/kg
[6]
  half-life: 2.17 h
[7]
  AUC(0-inf): 39600 ng·h/mL
[8]
  logD: 1.81
[9]
  IC50: 4 nM
[10]
  IC50: 3 nM
[11]
  Selectivity Index: 20
[12]
  AUC(0-inf): 4190 ng·h/mL
[13]
  AUC(0-inf): 35800 ng·h/mL
[14]
  AUC(0-inf): 24300 ng·h/mL
[15]
  AUC(0-inf): 13600 ng·h/mL
[16]
  half-life: 2.52 h
[17]
  half-life: 2.19 h
[18]
  half-life: 6.09 h
[19]
  Vd: 1.14 L/kg
[20]
  Cmax: 8520 ng/mL
[21]
  Cmax: 1660 ng/mL
[22]; po, 10 mg/kg, 24 h
  F: 171%
[23]
  bioavailability: 97%
[24]
  fraction unbound: 0.497
[25]
  fraction unbound: 0.412
[26]
  fraction unbound: 0.276
[27]
  half-life: > 3.1 h
[28]
  half-life: > 3.1 h
[29]
  half-life: > 3.1 h
[30]
  half-life: > 3.1 h
[31]
  half-life: > 3.61 h
[32]
  half-life: > 3.61 h
[33]
  half-life: > 3.61 h
[34]
  solubility: 207 µM (≈ 72.1 µg/mL)
[35]
  solubility: 30.9 µM (≈ 10.8 µg/mL)
[36]
  solubility: 173 µM (≈ 60.3 µg/mL)
[37]
  logP: 1.85
[38]
  Papp A→B: 13.6 ×10⁻⁶ cm/s
Cytochrome P450 2B6
  IC50: > 10000 nM
Cytochrome P450 2C9
  IC50: > 10000 nM
Cytochrome P450 2C19
  IC50: > 10000 nM
Cytochrome P450 3A4
  IC50: > 10000 nM
[39]
  IC50: > 40000 nM
[40]
  Activity: Non-toxic
[41]
  Activity: Non-toxic
[42]
  Activity: Non-toxic
[43]
  Activity: Non-toxic
[44]
  Activity: Non-toxic

— ChEMBL document CHEMBL6121044, “Discovery of Novel Spirocyclic MAT2A Inhibitors Demonstrating High In Vivo Efficacy in MTAP-Null Xenograft Models” (J Med Chem, 2025)
